Columns and labels:
Type in all cases: cell-based, human
[1] = test system: GSK-3β, β-catenin; assay: Immunocytochemistry of GSK-3β and β-catenin localization; conditions: galectin-3-silenced cells, confocal microscope
Method: DAPI was used to figure out the nucleus (blue). Bars represent a 10 μm length;
(§1) Cells cultured in chamber slides were fixed and blocked with 5% bovine serum albumin (BSA) in PBS and then incubated with primary anti-galectin-3, anti-fascin-1, anti-GSK-3β, anti-β-catenin antibodies diluted (1:200) in PBS. The cells were conjugated with the secondary antibodies labeled with FITC, Cy5 (Zymed), or Texas Red-X phalloidin (Invitrogen). The samples were treated with a mounting medium, and analyzed with a confocal microscope (Carl-Zeiss).

[2] = test system: fascin-1 promoter; assay: Chromatin immunoprecipitation assay on fascin-1 promoter; conditions: ChIP assay, with or without galectin-3
Method: (§2) Whole-cell lysate was used as a positive control. […] Whole-cell lysates were used as a positive control. (C) Chromatin immunoprecipitation assay was performed as described in the Materials and Methods of the Example section. Total genomic DNA on an input lane was used as a control for the PCR reaction. (D) Luciferase activity of TCF4 in lacZ and galectin-3 overexpressing cells. Luciferase assay was performed as described in the Example section. A construct of SP1 consensus was used as a negative control. […] Lamin A/C was used as a nuclear fraction control;
Chromatin immunoprecipitation assays were performed using a chIP assay kit (Upstate), according to the manufacturer's instructions. Anti-TCF4, anti-β-catenin, anti-galectin-3, and rabbit IgG were used to immunoprecipitate DNA-containing complexes. Primer was prepared with fascin-1 promoter binding sites: fascin-1 promoter (−1321), 5′-[…]-3′ (SEQ ID NO. 11) and (−1061) 5′-[…]-3′ (SEQ ID NO. 12), followed by performing PCR.

[3] = test system: MKN-28 cells; assay: Wound healing assay
Method: (§3) Transfilter migration and invasion assays were performed with 8.0-μm pore inserts in a 24-well Transwell. For this assay, MKN-28 and SNU638 cells were transfected overnight with siRNAs. Then, they were isolated and added to the upper chamber of a Transwell with 0.5 mg/mL collagen type 1 (BD Bioscience)-coated filters in migration assay. The invasion assay was performed using 1/15 diluted Matrigel (BD Bioscience)-coated filters at 2×10^4 cells/well. RPMI 1640 supplemented with 10% fetal bovine serum and 1% antibiotics was added to the lower chamber and the cells were allowed to incubate for 20 hours. Migrating and invading cells were quantified after H&E staining. Each experiment was performed in triplicate and mean values are presented. A wound healing assay was performed according to the published protocol (Liang C C, Park A Y, Guan J L. In vitro scratch assay: a convenient and inexpensive method for analysis of cell migration in vitro. Nat Protoc 2007; 2:329-33).

[4] = test system: β-catenin/TCF-4; assay: Immunoprecipitation and Western blot of GSK-3β, β-catenin and TCF-4 interaction; conditions: MKN-28 cells, immunoprecipitation
Method: as §2
(§4) For use in Western blotting and immunoprecipitation, cell lysates were prepared in RIPA buffer containing a protease inhibitor cocktail. Immunoblotting was performed with anti-galectin-3, anti-fascin-1, anti-GSK-3β, anti-TCF-4 (Santa-Cruz), anti-GSK-3β[pS^[…]] (biosourse), anti-β-catenin and anti-lamin A/C (Cell-Signaling), and anti-β-actin (Sigma). Immunoprecipitation was performed with A/G agarose beads coated with anti-galectin-3 and anti-β-catenin. Proteins were detected by Western Blotting with anti-galectin-3, anti-β-catenin, anti-GSK-3β and anti-TCF-4. Mouse/rabbit IgG was used as a negative control.

[5] = test system: MKN-28 cells; assay: Invasion assay (Matrigel-coated filters); conditions: 20 hours
Method: as §3

[6] = test system: phosphorylated GSK-3β, β-catenin; assay: Western blotting of nuclear and cytosol fractions; conditions: MKN-28 cells
Method: as §2, §4

[7] = test system: MKN-28 cells; assay: Transfilter migration assay; conditions: 20 hours, collagen type 1-coated filters
Method: as §3

[8] = test system: MKN-28 cells; assay: Immunocytochemistry (fascin-1, F-actin, cell morphology); conditions: confocal microscopy
Method: (§5) (A) mRNA and protein levels of galectin-3 and fascin-1 in human gastric cancer MKN-28 cells after transfection with scrambled siRNA (scRNA) or galectin-3 siRNA at two different concentrations (5 and 10 nmol/L). Total RNA and protein obtained from the cells harvested 48 hrs after the transfection were analyzed by RT-PCR and Western blotting. β-actin was used as a loading control. (B) Immunocytochemical analysis of scRNA or galectin-3 siRNA-transfected MKN-28 cells by DAPI (blue), anti-fascin-1 FITC (green) and anti-F-actin Texas Red (red) was detected with a confocal microscope. Bars represent a length of 10 μm. (C and D) A histogram depicting the migration of galectin-3 silenced cells. The results of the migration assay are presented with a statistical significance (P<0.0005) (C), and in cell photographs (D). (E) Expression levels of galectin-3 and fascin-1 in SNU-638 cells were determined by Western blotting after transfection with pcDNA3.1/NT-GFP-Galectin-3 and vector control of pcDNA3.1/NT-GFP. β-actin was used as a loading control;
(A) Fascin-1 protein expression in MKN-28 cells transfected with scrambled siRNA (scRNA) or fascin-1 siRNA. β-actin was used as a loading control. (B) Immunocytochemical analysis of MKN-28 cells transfected with scRNA or fascin-1 siRNA by DAPI (blue), anti-fascin-1 FITC (green) and anti-F-actin Texas Red (red) was conducted using confocal microscopy. Bars represent 10 μm in length. (C) Cell migration in fascin-1-silenced MKN-28 cells. Results of the migration assay are presented as a histogram, with statistical significance (P<0.0004). ([…]) (D) Colony formation assay, (E) invasion assay, and (F) wound healing assay of MKN-28 cells were performed with transfected galectin-3 and fascin-1 siRNAs. Results of the colony formation assay and invasion assay are shown as a histogram, with statistical significance (P<0.0005). Cell migration was measured by microscopy;
as §1

[9] = test system: fascin-1; assay: RT-PCR and Western blotting of fascin-1 after siRNA transfection in MKN-28 cells
Method: as §5, with “The results of the migration assay are presented with a statistical significance (P<0.0005) (C), and in cell photographs (D).” left out
(A) Fascin-1 protein expression in MKN-28 cells transfected with scrambled siRNA (scRNA) or fascin-1 siRNA. β-actin was used as a loading control. […] Cell migration was measured by microscopy; […]
(§6) For use in Western blotting and immunoprecipitation, cell lysates were prepared in RIPA buffer containing a protease inhibitor cocktail. […] Proteins were detected by Western Blotting with anti-galectin-3, anti-β-catenin, anti-GSK-3β and anti-TCF-4. […]

[10] = test system: galectin-3; assay: RT-PCR and Western blotting of galectin-3 after siRNA transfection; conditions: MKN-28 cells, siRNA 5 and 10 nmol/L, 48 hrs after transfection
Method: as §5, with “control; […]” for “control;”
as §6

[11] = test system: MKN-28 cells; assay: Colony formation (soft agar growth) assay; conditions: 3 weeks
Method: A layer of 0.5 mL RPMI 1640 containing 0.5% agar and 5% fetal bovine serum was placed in 24-well plates. After solidification of this bottom layer, cells transfected with galectin-3 and fascin-1 siRNAs (1.25×10^4 per well) were poured into a top layer of 0.25 mL RPMI 1640 containing 0.3% agar and 5% fetal bovine serum. Colonies were scored by microscopic examination after 3 weeks. All samples were prepared in triplicate.

[12] = test system: fascin-1; assay: Western blot of fascin-1 in galectin-3-overexpressing SNU638 cells; conditions: SNU638 cells infected with galectin-3 lenti-virus
Method: (§7) (A) Expression levels of galectin-3 and fascin-1 were detected by Western blot analysis in SNU-638 cells which were infected with a lenti-virus containing LacZ or galectin-3 and then transfected with fascin-1 siRNA or scrambled RNA as a negative control. β-actin was used as a loading control. (B and C) These cells were analyzed by migration assay (B) and invasion assay (C), presented as histograms (P<0.0005);
as §4
The full-length human galectin-3 gene cloned in the expression vector pcDNA3.1-NT-GFP-gal3 was amplified by PCR using a primer set of 5′-[…]-3′ (SEQ ID NO. 13) and 5′-[…]-3′ (SEQ ID NO. 14). The PCR product thus obtained was cloned into pcDNA3.1-NT-GFP using the TA cloning method (Invitrogen). […]

[13] = test system: SNU638 cells; assay: Invasion assay in galectin-3-overexpressing SNU638 cells; conditions: SNU638 cells infected with galectin-3 lenti-virus
Method: as §7, §3

[14] = test system: SNU638 cells; assay: Transfilter migration assay in galectin-3-overexpressing SNU638 cells; conditions: SNU638 cells infected with galectin-3 lenti-virus
Method: as §7, §3

Substance: 5′-AUAUGAAGCACUGGUGAGGUCUAUG-3′ (listed as RNA, chemistry not given here) [galectin-3 siRNA, siRNA silencing galectin-3, obtained from Invitrogen]
- localization of GSK-3β [1]: located only in cytosol
- localization of β-catenin [1]: not detected either in the nucleus or cytosol
- binding of β-catenin and TCF-4 to the promoter regions of fascin-1 [2]: lost their binding activity
- wound healing [3]: significantly reduced
- interaction between GSK-3β and β-catenin [4]: weakened
- interaction between β-catenin and TCF-4 [4]: diminished
- cell invasion [5]: significantly reduced
- level of phosphorylated GSK-3β [6]: decreased in both the nucleus and the cytosol
- level of β-catenin [6]: decreased in both the nucleus and the cytosol
- total number of migrated cells / cell migration [7]: reduced by almost half
- F-actin localization [8]: appeared only at cell-cell contact areas
- cell morphology [8]: became round in shape and did not have any protruding regions
- fascin-1 expression in the cytosol (immunocytochemistry) [8]: diminished in the cytosol
- expression levels of mRNAs and proteins of fascin-1 ([9]; galectin-3 siRNA 5 and 10 nmol/L, 48 hrs after transfection): reduction in the expression levels
- expression levels of mRNAs and proteins of galectin-3 [10]: reduction in the expression levels
- colony formation [11]: significantly reduced

Substance: 5′-UCCAGCAAGAAUGCCAGCUGCU ACU-3′ (listed as RNA, chemistry not given here) [fascin-1 siRNA, siRNA silencing fascin-1, obtained from Invitrogen; called a candidate therapeutic agent]
- level of fascin-1 protein [12]: diminished
- cell invasion by galectin-3 overexpression [13]: inhibitory effect
- wound healing [3]: significantly reduced
- cell invasion [5]: significantly reduced
- total number of migrated cells / cell migration [7]: decreased the migration
- F-actin localization [8]: appeared only in cell-cell contact areas
- cell morphology [8]: changed to a round shape without spikes
- fascin-1 protein expression ([9]; fascin-1 siRNA, Western blot): reduced fascin-1 expression
- cell migration increased by galectin-3 overexpression [14]: significantly reduced
- colony formation [11]: significantly reduced
